From paper PMC8878463, “Biological Activity and Stability of Aeruginosamides from Cyanobacteria” (Marine Drugs, 2022)
Values belong to the molecule of their own block, whether it stands above or below them.

How the values were obtained:
[1] = In vitro S9 stability assay (LC-MS/MS); type: in vitro ADME, human; details: for change of concentration in heat-denatured S9 fraction: heat-denatured (deactivated) S9 fraction; for change of concentration in heat-denatured S9 fraction / change of concentration in active S9 fraction: up to 60 min
Description: Human S9 liver fraction (catalogue no. HMS9PL, lot no. PL045-A) (protein content 20 mg mL^−1), containing a mixture of microsomal and cytosol enzymes, was used (Thermo Fisher Scientific, Waltham, MA USA) together with the following activating cofactors: NADPH (Alfa Aesar, Wart Hill, MA, USA), UDPGA (Merck KGaA; Darmstadt, Germany) and GSH (Merck, Darmstadt Germany). All cofactors (20 mM) and the analysed AEGs (3 µM) were prepared in 1% DMSO, the reaction was performed in a buffer (200 mM Tris (Merck KGaA, Darmstadt, Germany), 2 mM MgCl2 and 1M NaOH (Avantor Performance Materials Poland S.A., Gliwice, Poland); pH 7.4) 7-etoxycoumarine (7-EC; 3 µM in 20% DMSO) (Merck KGaA, Darmstadt, Germany) was used as a positive control. Tubes with 236 µL of buffer and 24 µL of S9 fraction were prepared in duplicates. Half of the samples was kept on ice, while the other half was deactivated by heating at 80 °C for 10 min and then cooled to room temperature. Cofactors were mixed (1:1:1) and 120 µL of the mixture, together with 20 µL of 7-EC were added to all samples. The aliquots (25 µL) of the samples were withdrawn at 0, 15, 30, 45, and 60 min, and 50 µL of an ice-cold ACN:MeOH (50:50) was added to stop the reaction. The samples were centrifuged (10,000× g, 4 °C, 10 min) and the supernatants were analysed by LC-MS/MS. The test was repeated twice. The elimination half-life was calculated as in Wen and Walle.
LC-MS/MS analyses were performed using an Agilent 1200 (Agilent Technologies, Waldboronn, Germany) chromatographic system coupled with a hybrid triple quadrupole/linear ion trap mass spectrometer (QTRAP5500, Applied Biosystems, Sciex, Concorde, ON, Canada) as a detector. AEGs were separated in a Zorbax Eclipse XDB-C18 column (4.61 mm × 150 mm; 5 µm) (Agilent Technologies, Santa Clara, CA, USA). The composition of the mobile phase was the same as in preparative chromatography. For analysis of the collected chromatographic fractions, the gradient changed from 15% B to 99% B over 20 min (flow rate 0.6 mL min^−1). The Turbo IonSource operated in positive ionisation mode at capillary voltage of 5.5 kV and source temperature of 550 °C. Cone gas pressure and desolvation gas pressure were 60 psi, declustering potential was 80 V, and collision energy was 60 ± 20 eV. Q3-information-dependent analysis (IDA) and enhanced product ion (EPI) modes were used. The IDA threshold was set at 500,000 cps, and the m/z range was 400–1000. The scan rate was 2000 amu s^−1, and the linear ion trap fill time 50 ms. For analysis of AEGs and 7-EC, the chromatographic gradient changed from 15% B to 25% B in 5 min, then to 99% B in the next 5 min (0.6 mL min^−1). MS operated in multiple reaction monitoring mode at collision energy CE 50 V and with the following transitions: 191 → 163, 119, 107 (q), 91 (for 7-EC); 561 → 222, 186, 86 (q) (for AEG A); 626 → 296, 136 (q), 70 (for AEG 625) and 658 → 296, 199 (q), 120 (for AEG 657). To determine the changes in AEGs concentrations, the peak areas of the most intensive ions (q) were measured.

[2] = test system: ROS (reactive oxygen species) levels in Huh7 cells; experiment: ROS-Glo H2O2 assay; type: cell-based, human; details: 1 µM to 100 µM, 24 h, concentration-dependent
Description: (§1) To determine cell viability and ROS level, Huh7 cells were seeded at 10,000 cells per well in white 96-well plates. After overnight incubation, the medium was removed and replaced with 100 μL of RPMI1640 supplemented with increasing concentrations of AEGs ranging from 10 nM to 100 μM (cell viability) or ranging from 1 µM to 100 μM (ROS), with three replicates at each concentration. After incubation for 24 h, cells viability was examined using a Cell Titer-Glo Luminescent Cell Viability Assay (Promega, Madison, WI, USA) and ROS was measured using a ROS-Glo H2O2 Assay (Promega, Madison, WI, USA).

[3] = test system: MIR92b-3p in Huh7-pmirGLO-92b cells; experiment: Dual-luciferase reporter assay for inhibitors of MIR92b-3p function; type: cell-based, human; details: 100 µM, 24 h
Description: In this study, the reporter assays for small-molecule inhibitors of the MIR92b-3p function, previously designed to screen Nostoc peptides, were used. The screen employs a Huh7 human hepatoma cell line (Cell Lines Service GmbH, CLS; Eppelheim, Germany) stably transfected with a pmirGLO vector containing dual-luciferase reporters. Briefly, for the chemical screening of AEGs, Huh7-pmirGLO-MIR92b-3p cells were seeded at 10,000 cells per well in white, 96-well plates (Thermo Fisher Scientific, Waltham, MA, USA). After overnight incubation, the medium was removed and replaced with 100 μL of RPMI1640 (Merck, KGaA, Darmstadt, Germany), supplemented with increasing concentrations of AEGs, ranging from 10 nM to 100 μM, with three replicates at each concentration. Cells were incubated for 24 h and then analysed with a dual-luciferase Reporter Assay Kit (Promega, Madison, WI, USA). Relative luciferase activity was calculated using the ratio of firefly (F) and Renilla (R) luciferase activity (F/R).

[4] = test system: human breast adenocarcinoma cell line T47D; experiment: MTT cytotoxicity assay; type: cell-based; details: 40 µM, 24 h
Description: MTT (3-(4,5-dimethylthiazol-2-yl)-2,5-diphenyltetrazolium-bromide) assay was performed according to Felczykowska et al.. Briefly, cytotoxicity assessment was conducted against human breast adenocarcinoma cell line T47D obtained from the European Collection of Authenticated Cell Cultures (ECACC) through Merck KGaA (Darmstadt, Germany). Cells were cultured in 96-well plates using RPMI1640 medium (Carl Roth GmbH, Karlsruhe, Germany) supplemented with a fetal bovine serum (10% v/v; Sigma-Aldrich by Merck KGaA, Darmstadt, Germany) and penicillin-streptomycin solution (1% v/v, stock solution 50 u and 0.05 mg mL^−1, respectively; Merck KGaA, Darmstadt, Germany) at 1 × 10^4 cells per well and incubated for 24 h. After the addition of the tested compounds (40, 80, 160 and 320 µM) dissolved in 1% DMSO, samples were incubated for another 24 h. Then, MTT reagent was added (25 µL at 4 mg mL^−1 in PBS; Merck KGaA; Darmstadt, Germany) and the samples were incubated for 4 h. Lastly, formazan crystals were dissolved in 100% DMSO and absorbance was measured using a microplate reader (Spectramax i3, Molecular Devices, LLC San Jose, CA, USA). Cell viability was calculated as the ratio of the mean absorbance value measured in two independent assays, for the three replicates containing the samples, to the mean absorbance of the three replicates of the corresponding solvent control and expressed as a percentage.

[5] = molecular target: T1, CYP3A4 (Homo sapiens, UniProt P08684); experiment: Vivid CYP450 screening kit, CYP3A4 Blue; type: biochemical; details: for effect on CYP3A4 activity: up to 60 µM
T1 construct: purchased Thermo Fisher Scientific P2857; host or cells: baculovirus expression system (insect cell microsomes)
T1 sequence (P08684 2-503 limits assumed): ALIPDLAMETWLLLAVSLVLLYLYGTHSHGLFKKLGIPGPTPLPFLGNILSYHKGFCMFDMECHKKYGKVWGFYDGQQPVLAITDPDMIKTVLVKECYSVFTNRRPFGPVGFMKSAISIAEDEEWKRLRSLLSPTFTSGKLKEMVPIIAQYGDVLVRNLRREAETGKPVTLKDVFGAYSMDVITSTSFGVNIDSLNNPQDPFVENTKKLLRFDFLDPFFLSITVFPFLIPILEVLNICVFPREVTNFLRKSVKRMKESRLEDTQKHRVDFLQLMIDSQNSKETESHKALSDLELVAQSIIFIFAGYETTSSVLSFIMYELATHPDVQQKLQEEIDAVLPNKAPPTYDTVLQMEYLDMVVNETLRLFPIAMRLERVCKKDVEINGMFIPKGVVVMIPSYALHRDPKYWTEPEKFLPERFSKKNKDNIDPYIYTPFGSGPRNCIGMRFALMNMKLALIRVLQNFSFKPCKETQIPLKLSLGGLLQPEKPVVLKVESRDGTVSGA
Description: The following commercially available Vivid® CYP450 Screening Kits were performed according to the instruction supplied by the manufacturer (Thermo Fisher Scientific, Waltham, MA, USA): Vivid® CYP2C9 Blue (cat. no. P2861), Vivid® CYP2D6 Blue (cat. no. P2972) and Vivid® CYP3A4 Blue (cat. no. P2857). The CYP450 BACULOSOMES Plus Reagent (with the recombinant human cytochrome P450 and human cytochrome 450 reductases), Vivid Regeneration System (333 mM glucose-6-phosphate and 30 U mL^−1 glucose-6-phosphate dehydrogenase in 100 mM K3PO4, pH 8.0), and Vivid NADP^+ (10 mM NADP^+ in 100 mM K3PO4, pH 8.0) were thawed at room temperature and kept on ice until use. After adjustment to room temperature, the Vivid substrate was dissolved in anhydrous acetonitrile (10 µM), and the fluorescence standard was dissolved in DMSO (100 µM). The test compounds and inhibitors were diluted with the Vivid® CYP450 reaction buffer. […] In the subsequent steps, 5 µL solutions of test compounds, inhibitors and solvent were added to the wells. Then, 5 µL of Master Pre-Mix (mixture of Reagent, Regeneration System and the Reaction Buffer) was dispensed to each well. After 10 min incubation at room temperature, the reaction was started by the addition of 5 µL of a mixture composed of Vivid® Substrate and NADP^+. Tests were performed in endpoint mode using 384-well plates. Excitation wavelength was 415 nm and emission was measured at 460 nm, at the start of the test and after 60 min. The test was performed with three replicates at each concentration.

[6] = test system: Huh7 cells; experiment: CellTiter-Glo cell viability assay; type: cell-based, human; details: 24 h; for effect on Huh7 cell viability: 10 nM to 100 µM; for mean luciferase expression (relative luminescence), cell viability: normalized to untreated cells
Description: as §1

[7] = molecular target: CYP2C9 (Homo sapiens, UniProt P11712); experiment: Vivid CYP450 screening kit, CYP2C9 Blue; details: for reduction of CYP2C9 activity: 60 µM, 60 min incubation
CYP2C9, sequence (P11712 whole entry): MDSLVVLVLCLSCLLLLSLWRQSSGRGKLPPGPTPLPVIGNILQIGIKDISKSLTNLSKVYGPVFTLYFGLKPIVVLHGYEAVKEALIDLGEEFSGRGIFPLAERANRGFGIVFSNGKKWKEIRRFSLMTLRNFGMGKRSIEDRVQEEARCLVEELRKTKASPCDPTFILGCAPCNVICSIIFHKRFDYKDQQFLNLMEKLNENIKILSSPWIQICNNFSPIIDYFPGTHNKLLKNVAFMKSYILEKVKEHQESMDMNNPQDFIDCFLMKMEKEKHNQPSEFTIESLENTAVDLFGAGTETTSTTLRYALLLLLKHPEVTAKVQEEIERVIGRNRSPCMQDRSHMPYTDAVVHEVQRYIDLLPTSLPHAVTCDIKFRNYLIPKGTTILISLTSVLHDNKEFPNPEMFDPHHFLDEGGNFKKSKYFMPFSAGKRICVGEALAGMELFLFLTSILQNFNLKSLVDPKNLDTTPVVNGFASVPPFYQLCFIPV
Description: (§2) The following commercially available Vivid® CYP450 Screening Kits were performed according to the instruction supplied by the manufacturer (Thermo Fisher Scientific, Waltham, MA, USA): Vivid® CYP2C9 Blue (cat. no. P2861), Vivid® CYP2D6 Blue (cat. no. P2972) and Vivid® CYP3A4 Blue (cat. no. P2857). […] After adjustment to room temperature, the Vivid substrate was dissolved in anhydrous acetonitrile (10 µM), and the fluorescence standard was dissolved in DMSO (100 µM). The test compounds and inhibitors were diluted with the Vivid® CYP450 reaction buffer. […] In the subsequent steps, 5 µL solutions of test compounds, inhibitors and solvent were added to the wells. Then, 5 µL of Master Pre-Mix (mixture of Reagent, Regeneration System and the Reaction Buffer) was dispensed to each well. After 10 min incubation at room temperature, the reaction was started by the addition of 5 µL of a mixture composed of Vivid® Substrate and NADP^+. Tests were performed in endpoint mode using 384-well plates. […] The test was performed with three replicates at each concentration.

[8] = molecular target: CYP2D6 (Homo sapiens, UniProt P10635); experiment: Vivid CYP450 screening kit, CYP2D6 Blue
CYP2D6, sequence (P10635 whole entry): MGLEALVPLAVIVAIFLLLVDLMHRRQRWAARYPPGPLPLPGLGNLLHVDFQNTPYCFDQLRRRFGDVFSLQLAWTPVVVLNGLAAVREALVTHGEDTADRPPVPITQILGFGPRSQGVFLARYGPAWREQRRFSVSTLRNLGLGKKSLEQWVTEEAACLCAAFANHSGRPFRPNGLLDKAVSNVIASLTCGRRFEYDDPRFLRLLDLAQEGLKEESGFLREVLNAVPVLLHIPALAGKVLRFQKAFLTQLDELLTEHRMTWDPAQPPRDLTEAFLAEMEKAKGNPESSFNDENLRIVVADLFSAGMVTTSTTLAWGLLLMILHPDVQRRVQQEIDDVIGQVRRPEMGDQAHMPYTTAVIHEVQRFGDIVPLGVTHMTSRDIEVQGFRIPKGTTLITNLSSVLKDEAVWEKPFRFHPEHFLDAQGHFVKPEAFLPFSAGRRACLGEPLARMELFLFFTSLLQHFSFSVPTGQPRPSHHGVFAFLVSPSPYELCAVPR
Description: as §2

[9] = test system: K562 human leukaemia cells; parameters: method as in PMID 34237867; details: previous study; read-out: IC50 cytotoxic activity, K562; cited from earlier work
[10] = test system: A2780 human ovarian tumour cells; parameters: method as in PMID 34237867; details: previous study; read-out: IC50 cytotoxic activity, A2780; cited from earlier work
[11] = active S9 fraction, 60 min, 3 µM
[12] = human, recombinant CYP2D6 (CYP450 BACULOSOMES Plus Reagent), probe Vivid CYP2D6 Blue substrate

effect on CYP3A4 activity [5]: No significant loss of CYP3A4 activity | reduction of CYP2C9 activity [7]: 43.9% | effect on CYP2D6 activity ([8]; up to 60 µM): did not induce any effects
SMILES: C=CC(C)(C)NC(Cc1ccc(O)cc1)C(=O)NC(C(=O)N1CCCC1C(=O)N1CCCC1c1nc(C(=O)O)cs1)C(C)C (stereo not drawn) [AEG625]
change of ROS levels in Huh7 cells [2]: twofold | luciferase signal intensity (MIR92b-3p reporter) [3]: slight increase in signal intensity | inhibition of T47D viability [4]: 48% | change of concentration in active S9 fraction ([1]; active S9 fraction): neither changes in the active nor in the deactivated fraction were detected | change of concentration in heat-denatured S9 fraction [1]: neither changes in the active nor in the deactivated fraction were detected | effect on Huh7 cell viability [6]: no apparent effect | mean luciferase expression (relative luminescence), cell viability ([6]; 50 µM): 0.73 (SD = 0.47) | mean luciferase expression (relative luminescence), cell viability ([6]; 100 µM): 0.70 (SD = 0.27)

CYP3A4 activity lower than in the control ([5]; 60 µM): approx. 18% | reduction of CYP2C9 activity [7]: 40.7% | inhibition at 60 min, 60 µM [8, 12]: 33.2%
SMILES: C=CC(C)(C)NC(Cc1ccccc1)C(=O)NC(Cc1ccccc1)C(=O)N1CCCC1C(=O)N1CCCC1c1nc(C(=O)O)cs1 (stereo not drawn) [AEG657]
inhibition of T47D viability [4]: 63% | change of concentration in active S9 fraction ([1]; active S9 fraction): neither changes in the active nor in the deactivated fraction were detected | change of concentration in heat-denatured S9 fraction [1]: neither changes in the active nor in the deactivated fraction were detected | effect on Huh7 cell viability [6]: lack of significant effects

Continued, molecule first:

SMILES: CCOc1ccc2ccc(=O)oc2c1 [7-EC, 7-etoxycoumarin, reference compound]
elimination half-life t1/2 ([1]; active S9 fraction with NADPH, UDPGA, GSH): 38.7 min | concentration remaining, % of initial value [1, 11]: 28.6% | change of concentration in heat-denatured S9 fraction [1]: no changes were observed

SMILES: CCC(C)C(C(=O)NC(C(=O)N1CCCC1c1nc(C(=O)O)cs1)C(C)C)N(CC=C(C)C)CC=C(C)C (stereo not drawn) [AEG A]
IC50 [9]: 5.2 µM | inhibition of T47D viability [4]: no effects were observed | concentration remaining, % of initial value ([1]; active S9 fraction, 15 min, 3 µM): 2.9% | concentration remaining, % of initial value [1, 11]: 0.4% | concentration remaining, % of initial value ([1]; heat-denatured S9 fraction, 15 min): 56.0% | concentration remaining, % of initial value ([1]; heat-denatured S9 fraction, 60 min): 46.0% | half-life at 3 µM ([1]; human, liver S9 fraction (active), pH 7.4, active S9 fraction with NADPH, UDPGA, GSH, read-out: elimination half-life t1/2): 2.48 min | IC50 ([5]; 60 min incubation): 5.7 µM | effect on CYP3A4 activity [5]: active against CYP3A4, but only at the two highest concentrations | effect on Huh7 cell viability [6]: did not affect either of the two cancer cell lines | reduction of CYP2C9 activity [7]: 28.7% | remaining CYP2D6 activity (reduced to) ([8]; 6 µM): 78.4% | remaining CYP2D6 activity (reduced to) ([8]; 60 µM): 60.4% | IC50 at 60 min [8, 12]: 8.6 µM | IC50 [10]: 2.9 µM

SMILES: C=C[C@H]1C[N@@]2CC[C@H]1C[C@@H]2[C@@H](O)c1ccnc2ccc(OC)cc12 [Quinidine, reference compound]
inhibition at 60 min, 60 µM ([8]; human): 96.2%

SMILES: Nc1ccc(S(=O)(=O)Nc2ccnn2-c2ccccc2)cc1 [sulfaphenazole, reference compound]
reduction of CYP2C9 activity [7]: 44.9% | IC50 at 60 min ([7]; human): 6.1 µM
